Assay results published in ChEMBL document CHEMBL1159070, “Synthesis and disulfide bond connectivity-activity studies of a kalata B1-inspired cyclopeptide against dengue NS2B-NS3 protease” (Bioorg Med Chem, 2010).
pIC50, pKi: −log10 of the molar value. Calls of active or inactive are those of the source. The calls are words filed in the database; no cut-off is given here.

What was measured:
[1] = (§1) Inhibition of Dengue virus 2 recombinant NS2B/3 protease expressed in Escherichia coli BL21(DE3) assessed as Dabcyl-KGRRSSKL-Edans substrate cleavage by fluorimetry; set-up: species or system dengue virus type 2
[2] = test system: dengue virus type 2; test: as §1

| pIC50 [1] | Activity [2] | SMILES | pKi [1] |
| --- | --- | --- | --- |
| 5.03 | – | CC(C)C[C@@H]1NC(=O)CNC(=O)[C@H](CCCNC(=N)N)NC(=O)[C@H](CCCNC(=N)N)NC(=O)[C@H]([C@@H](C)O)NC(=O)[C@@H]2CSSC[C@H](NC(=O)[C@H](C(C)C)NC(=O)[C@@H]3CCCN3C1=O)C(=O)NCC(=O)N[C@@H](CO)C(=O)N[C@@H](CCC(=O)O)C(=O)N[C@@H](CCC(=O)O)C(=O)N[C@@H](CO)C(=O)N[C@@H](CCCNC(=N)N)C(=O)N[C@@H](CCCNC(=N)N)C(=O)NCC(=O)N[C@H]1CSSC[C@H](NC(=O)CNC(=O)[C@@H]3CCCN3C(=O)[C@H]([C@@H](C)O)NC(=O)[C@@H](N)CC(=O)NC1=O)C(=O)N[C@@H](CCCNC(=N)N)C(=O)N[C@@H](CCCNC(=N)N)C(=O)N[C@@H](CO)C(=O)N[C@@H](Cc1c[nH]c3ccccc13)C(=O)N1CCC[C@H]1C(=O)N[C@@H](C(C)C)C(=O)N2 | 5.52 |
| – | inactive | CC(C)C[C@@H]1NC(=O)CNC(=O)[C@H](CC(N)=O)NC(=O)[C@H](CCCNC(=N)N)NC(=O)[C@H]([C@@H](C)O)NC(=O)[C@H](CS)NC(=O)[C@H](C(C)C)NC(=O)[C@@H]2CCCN2C(=O)[C@H](CCC(=O)O)NC(=O)[C@H](CO)NC(=O)[C@H](CS)NC(=O)[C@H]([C@@H](C)O)NC(=O)[C@H](CS)NC(=O)CNC(=O)[C@@H]2CCCN2C(=O)[C@H]([C@@H](C)O)NC(=O)[C@H](CC(N)=O)NC(=O)[C@H](CS)NC(=O)[C@H]([C@@H](C)O)NC(=O)CNC(=O)CNC(=O)[C@H](C(C)C)NC(=O)[C@H](CS)NC(=O)[C@H]([C@@H](C)O)NC(=O)[C@H](CCC(=O)O)NC(=O)CNC(=O)[C@H](CS)NC(=O)[C@H](C(C)C)NC(=O)[C@@H]2CCCN2C1=O | – |
| 5.37 | – | CC(C)C[C@@H]1NC(=O)CNC(=O)[C@H](CCCNC(=N)N)NC(=O)[C@H](CCCNC(=N)N)NC(=O)[C@H]([C@@H](C)O)NC(=O)[C@@H]2CSSC[C@H](NC(=O)CNC(=O)[C@@H]3CCCN3C(=O)[C@H]([C@@H](C)O)NC(=O)[C@@H](N)CC(=O)NC(=O)[C@@H]3CSSC[C@H](NC(=O)[C@H](C(C)C)NC(=O)[C@@H]4CCCN4C1=O)C(=O)NCC(=O)N[C@@H](CO)C(=O)N[C@@H](CCC(=O)O)C(=O)N[C@@H](CCC(=O)O)C(=O)N[C@@H](CO)C(=O)N[C@@H](CCCNC(=N)N)C(=O)N[C@@H](CCCNC(=N)N)C(=O)NCC(=O)N3)C(=O)N[C@@H](CCCNC(=N)N)C(=O)N[C@@H](CCCNC(=N)N)C(=O)N[C@@H](CO)C(=O)N[C@@H](Cc1c[nH]c3ccccc13)C(=O)N1CCC[C@H]1C(=O)N[C@@H](C(C)C)C(=O)N2 | 5.86 |
| – | Active | CC(C)C[C@@H]1NC(=O)CNC(=O)[C@H](CCCNC(=N)N)NC(=O)[C@H](CCCNC(=N)N)NC(=O)[C@H]([C@@H](C)O)NC(=O)[C@H](CS)NC(=O)[C@H](C(C)C)NC(=O)[C@@H]2CCCN2C(=O)[C@H](Cc2c[nH]c3ccccc23)NC(=O)[C@H](CO)NC(=O)[C@H](CCCNC(=N)N)NC(=O)[C@H](CCCNC(=N)N)NC(=O)[C@H](CS)NC(=O)CNC(=O)[C@H]2CCCN2C(=O)[C@H]([C@@H](C)O)NC(=O)[C@@H](N)CC(=O)NC(=O)[C@H](CS)NC(=O)CNC(=O)[C@H](CCCNC(=N)N)NC(=O)[C@H](CCCNC(=N)N)NC(=O)[C@H](CO)NC(=O)[C@H](CCC(=O)O)NC(=O)[C@H](CCC(=O)O)NC(=O)[C@H](CO)NC(=O)CNC(=O)[C@H](CS)NC(=O)[C@H](C(C)C)NC(=O)[C@@H]2CCCN2C1=O | – |
| – | inactive | CC(C)C[C@H](NC(=O)CN)C(=O)N1CCC[C@H]1C(=O)N[C@H](C(=O)N[C@@H](CS)C(=O)NCC(=O)N[C@@H](CCC(=O)O)C(=O)N[C@H](C(=O)N[C@@H](CS)C(=O)N[C@H](C(=O)NCC(=O)NCC(=O)N[C@H](C(=O)N[C@@H](CS)C(=O)N[C@@H](CC(N)=O)C(=O)N[C@H](C(=O)N1CCC[C@H]1C(=O)NCC(=O)N[C@@H](CS)C(=O)N[C@H](C(=O)N[C@@H](CS)C(=O)N[C@@H](CO)C(=O)N[C@@H](CCC(=O)O)C(=O)N1CCC[C@H]1C(=O)N[C@H](C(=O)N[C@@H](CS)C(=O)N[C@H](C(=O)N[C@@H](CCCNC(=N)N)C(=O)N[C@@H](CC(N)=O)C(=O)O)[C@@H](C)O)C(C)C)[C@@H](C)O)[C@@H](C)O)[C@@H](C)O)C(C)C)[C@@H](C)O)C(C)C | – |
